{"source": "PubChem BioAssay AID2060907", "about": "(Molecular Pharmacology Branch, DTP, NCI, 2025);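 further: spheroids exposed to compound for 7 days before readout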;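 on viability, T/C: 100% = DMSO vehicle control luminescence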", "test_system": "388556-164-R-J1-PDC complex spheroid viability", "test": "Anticancer human tumor 388556-164-R-J1-PDC patient-derived colon adenocarcinoma cell line growth inhibition [RAS]", "conditions": "for IC50: curve of first compound; for viability, T/C: stronger effect = lower value", "outline": "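Tumour cells grown as complex spheroids with HUVEC endothelial cells and mesenchymal stem cells, treated with RAS pathway inhibitor combinations. Each agent spans half-log steps from near clinical Cmax, or 10 microM where Cmax is unknown.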", "key": {"[1]": {"conditions": "second compound 0.00316 µM, first compound 0.0316 µM"}, "[2]": {"conditions": "second compound 0.00316 µM, first compound 0.1 µM"}, "[3]": {"conditions": "second compound 0.01 µM, first compound 0.0316 µM"}, "[4]": {"conditions": "second compound 0.01 µM, first compound 0.1 µM"}, "[5]": {"conditions": "second compound 0.0316 µM, first compound 0.0316 µM"}, "[6]": {"conditions": "second compound 0.0316 µM, first compound 0.1 µM"}, "[7]": {"conditions": "second compound 0.1 µM, first compound 0.0316 µM"}, "[8]": {"conditions": "second compound 0.1 µM, first compound 0.1 µM"}, "[9]": {"conditions": "second compound 0.316 µM, first compound 0.0316 µM"}, "[10]": {"conditions": "second compound 0.316 µM, first compound 0.1 µM"}, "[11]": {"conditions": "second compound 1 µM, first compound 0.0316 µM"}, "[12]": {"conditions": "second compound 1 µM, first compound 0.1 µM"}}}
{"smiles": "CC(C)NCC(C(=O)N1CCN(c2ncnc3c2C(C)CC3O)CC1)c1ccc(Cl)cc1", "note": "(centres undefined) + C=CC(=O)N1CCN(c2nc(OCC3CCCN3C)nc3c(F)c(-c4nc(N)cc(C)c4C(F)(F)F)c(Cl)cc23)C(C)C1", "values": [{"measurement": "IC50", "setting": "second compound 0.00316 µM", "value": "> 10000", "unit": "nM"}, {"measurement": "IC50", "setting": "second compound 0.01 µM", "value": "> 10000", "unit": "nM"}, {"measurement": "IC50", "setting": "second compound 0.0316 µM", "value": "> 10000", "unit": "nM"}, {"measurement": "IC50", "setting": "second compound 0.1 µM", "value": "> 10000", "unit": "nM"}, {"measurement": "IC50", "setting": "second compound 0.316 µM", "value": "> 10000", "unit": "nM"}, {"measurement": "IC50", "setting": "second compound 1 µM", "value": "> 10000", "unit": "nM"}, {"measurement": "viability, T/C", "setting": "[1]", "value": 117, "unit": "%"}, {"measurement": "viability, T/C", "setting": "[2]", "value": 116, "unit": "%"}, {"measurement": "viability, T/C", "setting": "second compound 0.00316 µM, first compound 0.316 µM", "value": 107, "unit": "%"}, {"measurement": "viability, T/C", "setting": "second compound 0.00316 µM, first compound 1 µM", "value": 95.5, "unit": "%"}, {"measurement": "viability, T/C", "setting": "second compound 0.00316 µM, first compound 3.16 µM", "value": 102, "unit": "%"}, {"measurement": "viability, T/C", "setting": "second compound 0.00316 µM, first compound 10 µM", "value": 102, "unit": "%"}, {"measurement": "viability, T/C", "setting": "[3]", "value": 106, "unit": "%"}, {"measurement": "viability, T/C", "setting": "[4]", "value": 110, "unit": "%"}, {"measurement": "viability, T/C", "setting": "second compound 0.01 µM, first compound 0.316 µM", "value": 103, "unit": "%"}, {"measurement": "viability, T/C", "setting": "second compound 0.01 µM, first compound 1 µM", "value": 108, "unit": "%"}, {"measurement": "viability, T/C", "setting": "second compound 0.01 µM, first compound 3.16 µM", "value": 90.9, "unit": "%"}, {"measurement": "viability, T/C", "setting": "second compound 0.01 µM, first compound 10 µM", "value": 105, "unit": "%"}, {"measurement": "viability, T/C", "setting": "[5]", "value": 97.2, "unit": "%"}, {"measurement": "viability, T/C", "setting": "[6]", "value": 113, "unit": "%"}, {"measurement": "viability, T/C", "setting": "second compound 0.0316 µM, first compound 0.316 µM", "value": 110, "unit": "%"}, {"measurement": "viability, T/C", "setting": "second compound 0.0316 µM, first compound 1 µM", "value": 103, "unit": "%"}, {"measurement": "viability, T/C", "setting": "second compound 0.0316 µM, first compound 3.16 µM", "value": 105, "unit": "%"}, {"measurement": "viability, T/C", "setting": "second compound 0.0316 µM, first compound 10 µM", "value": 94.2, "unit": "%"}, {"measurement": "viability, T/C", "setting": "[7]", "value": 108, "unit": "%"}, {"measurement": "viability, T/C", "setting": "[8]", "value": 103, "unit": "%"}, {"measurement": "viability, T/C", "setting": "second compound 0.1 µM, first compound 0.316 µM", "value": 99.5, "unit": "%"}, {"measurement": "viability, T/C", "setting": "second compound 0.1 µM, first compound 1 µM", "value": 106, "unit": "%"}, {"measurement": "viability, T/C", "setting": "second compound 0.1 µM, first compound 3.16 µM", "value": 95.9, "unit": "%"}, {"measurement": "viability, T/C", "setting": "second compound 0.1 µM, first compound 10 µM", "value": 91, "unit": "%"}, {"measurement": "viability, T/C", "setting": "[9]", "value": 106, "unit": "%"}, {"measurement": "viability, T/C", "setting": "[10]", "value": 112, "unit": "%"}, {"measurement": "viability, T/C", "setting": "second compound 0.316 µM, first compound 0.316 µM", "value": 105, "unit": "%"}, {"measurement": "viability, T/C", "setting": "second compound 0.316 µM, first compound 1 µM", "value": 99.3, "unit": "%"}, {"measurement": "viability, T/C", "setting": "second compound 0.316 µM, first compound 3.16 µM", "value": 111, "unit": "%"}, {"measurement": "viability, T/C", "setting": "second compound 0.316 µM, first compound 10 µM", "value": 99.1, "unit": "%"}, {"measurement": "viability, T/C", "setting": "[11]", "value": 106, "unit": "%"}, {"measurement": "viability, T/C", "setting": "[12]", "value": 104, "unit": "%"}, {"measurement": "viability, T/C", "setting": "second compound 1 µM, first compound 0.316 µM", "value": 118, "unit": "%"}, {"measurement": "viability, T/C", "setting": "second compound 1 µM, first compound 1 µM", "value": 99.8, "unit": "%"}, {"measurement": "viability, T/C", "setting": "second compound 1 µM, first compound 3.16 µM", "value": 100, "unit": "%"}, {"measurement": "viability, T/C", "setting": "second compound 1 µM, first compound 10 µM", "value": 99.4, "unit": "%"}]}
{"smiles": "CC(C)n1nc(-c2ccc3oc(N)nc3c2)c2c(N)ncnc21", "note": "+ C=CC(=O)N1CCN(c2nc(OCC3CCCN3C)nc3c(F)c(-c4nc(N)cc(C)c4C(F)(F)F)c(Cl)cc23)C(C)C1", "values": [{"measurement": "IC50", "setting": "second compound 0.00316 µM", "value": 69, "unit": "nM"}, {"measurement": "IC50", "setting": "second compound 0.01 µM", "value": 74.3, "unit": "nM"}, {"measurement": "IC50", "setting": "second compound 0.0316 µM", "value": 64.6, "unit": "nM"}, {"measurement": "IC50", "setting": "second compound 0.1 µM", "value": 77.2, "unit": "nM"}, {"measurement": "IC50", "setting": "second compound 0.316 µM", "value": 75, "unit": "nM"}, {"measurement": "IC50", "setting": "second compound 1 µM", "value": 51.4, "unit": "nM"}, {"measurement": "viability, T/C", "setting": "second compound 0.00316 µM, first compound 0.000316 µM", "value": 102, "unit": "%"}, {"measurement": "viability, T/C", "setting": "second compound 0.00316 µM, first compound 0.001 µM", "value": 98.2, "unit": "%"}, {"measurement": "viability, T/C", "setting": "second compound 0.00316 µM, first compound 0.00316 µM", "value": 91.9, "unit": "%"}, {"measurement": "viability, T/C", "setting": "second compound 0.00316 µM, first compound 0.01 µM", "value": 74.8, "unit": "%"}, {"measurement": "viability, T/C", "setting": "[1]", "value": 66.5, "unit": "%"}, {"measurement": "viability, T/C", "setting": "[2]", "value": 42.7, "unit": "%"}, {"measurement": "viability, T/C", "setting": "second compound 0.01 µM, first compound 0.000316 µM", "value": 100, "unit": "%"}, {"measurement": "viability, T/C", "setting": "second compound 0.01 µM, first compound 0.001 µM", "value": 95.3, "unit": "%"}, {"measurement": "viability, T/C", "setting": "second compound 0.01 µM, first compound 0.00316 µM", "value": 95.3, "unit": "%"}, {"measurement": "viability, T/C", "setting": "second compound 0.01 µM, first compound 0.01 µM", "value": 76.7, "unit": "%"}, {"measurement": "viability, T/C", "setting": "[3]", "value": 56, "unit": "%"}, {"measurement": "viability, T/C", "setting": "[4]", "value": 47.8, "unit": "%"}, {"measurement": "viability, T/C", "setting": "second compound 0.0316 µM, first compound 0.000316 µM", "value": 104, "unit": "%"}, {"measurement": "viability, T/C", "setting": "second compound 0.0316 µM, first compound 0.001 µM", "value": 95.6, "unit": "%"}, {"measurement": "viability, T/C", "setting": "second compound 0.0316 µM, first compound 0.00316 µM", "value": 80.1, "unit": "%"}, {"measurement": "viability, T/C", "setting": "second compound 0.0316 µM, first compound 0.01 µM", "value": 76, "unit": "%"}, {"measurement": "viability, T/C", "setting": "[5]", "value": 59.6, "unit": "%"}, {"measurement": "viability, T/C", "setting": "[6]", "value": 43.5, "unit": "%"}, {"measurement": "viability, T/C", "setting": "second compound 0.1 µM, first compound 0.000316 µM", "value": 96.2, "unit": "%"}, {"measurement": "viability, T/C", "setting": "second compound 0.1 µM, first compound 0.001 µM", "value": 108, "unit": "%"}, {"measurement": "viability, T/C", "setting": "second compound 0.1 µM, first compound 0.00316 µM", "value": 83.2, "unit": "%"}, {"measurement": "viability, T/C", "setting": "second compound 0.1 µM, first compound 0.01 µM", "value": 84.5, "unit": "%"}, {"measurement": "viability, T/C", "setting": "[7]", "value": 63, "unit": "%"}, {"measurement": "viability, T/C", "setting": "[8]", "value": 46.1, "unit": "%"}, {"measurement": "viability, T/C", "setting": "second compound 0.316 µM, first compound 0.000316 µM", "value": 99.7, "unit": "%"}, {"measurement": "viability, T/C", "setting": "second compound 0.316 µM, first compound 0.001 µM", "value": 98, "unit": "%"}, {"measurement": "viability, T/C", "setting": "second compound 0.316 µM, first compound 0.00316 µM", "value": 92.2, "unit": "%"}, {"measurement": "viability, T/C", "setting": "second compound 0.316 µM, first compound 0.01 µM", "value": 79.6, "unit": "%"}, {"measurement": "viability, T/C", "setting": "[9]", "value": 59.4, "unit": "%"}, {"measurement": "viability, T/C", "setting": "[10]", "value": 46.9, "unit": "%"}, {"measurement": "viability, T/C", "setting": "second compound 1 µM, first compound 0.000316 µM", "value": 90.6, "unit": "%"}, {"measurement": "viability, T/C", "setting": "second compound 1 µM, first compound 0.001 µM", "value": 99.9, "unit": "%"}, {"measurement": "viability, T/C", "setting": "second compound 1 µM, first compound 0.00316 µM", "value": 95.2, "unit": "%"}, {"measurement": "viability, T/C", "setting": "second compound 1 µM, first compound 0.01 µM", "value": 81.1, "unit": "%"}, {"measurement": "viability, T/C", "setting": "[11]", "value": 55.4, "unit": "%"}, {"measurement": "viability, T/C", "setting": "[12]", "value": 43.1, "unit": "%"}]}
